Assay results: patent US20050282743A1, “Molecular interactions in cells” (Arbor Vita Corporation, priority 2001, published 2005)
Ends that are not written are not given here. Peptide text beside a SMILES is read from it. * marks the point of attachment. Biotin = O=C1N[C@H]2[C@H](CS[C@H]2CCCCC(=O)*)N1

Legend:
Assay in all cases: G' assay (10 uM PL peptide), results of TABLE 7 and TABLE 12
Type in all cases: binding
[1] = target: T1, PDZ protein (GST-PDZ fusion) (Homo sapiens, UniProt Q6P0Q8)
T1 construct: made in house; host or cells: E. coli (DH5alpha, BL21 or JM109)
T1 sequence (Q6P0Q8 whole entry, the tested form may be a part): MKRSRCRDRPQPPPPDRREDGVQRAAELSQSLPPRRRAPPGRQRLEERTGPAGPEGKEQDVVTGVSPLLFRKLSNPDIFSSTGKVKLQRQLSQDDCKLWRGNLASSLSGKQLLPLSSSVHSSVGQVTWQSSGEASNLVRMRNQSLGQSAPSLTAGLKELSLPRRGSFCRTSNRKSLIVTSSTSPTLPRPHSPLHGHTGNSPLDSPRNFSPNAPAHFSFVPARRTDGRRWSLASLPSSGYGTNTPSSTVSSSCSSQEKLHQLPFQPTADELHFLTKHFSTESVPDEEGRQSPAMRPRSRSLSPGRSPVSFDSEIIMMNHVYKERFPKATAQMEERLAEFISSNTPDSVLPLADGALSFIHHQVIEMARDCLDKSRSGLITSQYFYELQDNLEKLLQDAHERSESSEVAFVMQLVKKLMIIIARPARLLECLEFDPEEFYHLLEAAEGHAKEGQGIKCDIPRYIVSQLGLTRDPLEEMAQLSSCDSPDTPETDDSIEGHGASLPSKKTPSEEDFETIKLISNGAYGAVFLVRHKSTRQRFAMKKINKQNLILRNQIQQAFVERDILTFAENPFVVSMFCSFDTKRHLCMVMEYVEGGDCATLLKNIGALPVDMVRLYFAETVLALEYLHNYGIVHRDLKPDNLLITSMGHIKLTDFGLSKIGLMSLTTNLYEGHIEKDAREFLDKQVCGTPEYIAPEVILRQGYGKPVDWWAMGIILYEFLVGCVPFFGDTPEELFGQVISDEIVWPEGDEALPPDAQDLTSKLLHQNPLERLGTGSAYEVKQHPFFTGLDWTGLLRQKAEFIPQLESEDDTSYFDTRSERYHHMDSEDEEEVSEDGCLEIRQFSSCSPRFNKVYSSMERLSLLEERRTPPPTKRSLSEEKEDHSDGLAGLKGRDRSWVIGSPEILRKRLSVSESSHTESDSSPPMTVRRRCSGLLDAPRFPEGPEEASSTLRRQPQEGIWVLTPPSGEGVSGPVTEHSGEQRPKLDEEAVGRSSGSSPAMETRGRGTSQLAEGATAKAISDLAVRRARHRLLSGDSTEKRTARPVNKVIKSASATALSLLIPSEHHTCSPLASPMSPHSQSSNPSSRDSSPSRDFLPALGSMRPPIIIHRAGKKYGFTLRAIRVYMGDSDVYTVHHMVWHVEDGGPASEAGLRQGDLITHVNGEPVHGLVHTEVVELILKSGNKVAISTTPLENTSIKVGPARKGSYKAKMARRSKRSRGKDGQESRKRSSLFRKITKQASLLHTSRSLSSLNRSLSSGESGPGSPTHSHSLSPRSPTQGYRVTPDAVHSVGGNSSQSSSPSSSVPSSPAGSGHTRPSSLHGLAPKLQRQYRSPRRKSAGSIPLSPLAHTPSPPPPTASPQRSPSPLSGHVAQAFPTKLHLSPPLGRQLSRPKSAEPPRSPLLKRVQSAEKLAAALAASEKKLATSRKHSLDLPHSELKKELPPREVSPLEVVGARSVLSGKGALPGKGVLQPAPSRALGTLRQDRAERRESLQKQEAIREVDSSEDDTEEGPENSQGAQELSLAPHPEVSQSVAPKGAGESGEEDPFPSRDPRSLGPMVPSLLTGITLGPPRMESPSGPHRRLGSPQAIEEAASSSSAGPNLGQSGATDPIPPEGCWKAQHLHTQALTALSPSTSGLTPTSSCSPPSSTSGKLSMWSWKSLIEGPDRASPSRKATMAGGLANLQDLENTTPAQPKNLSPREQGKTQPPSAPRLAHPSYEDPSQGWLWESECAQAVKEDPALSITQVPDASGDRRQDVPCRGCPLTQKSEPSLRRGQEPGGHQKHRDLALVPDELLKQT
Outline: (§1)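 Binding classes derive from A450 nm of bound biotin-tagged PL peptide. A score of 5 needs A450 above 4 in more than two repeats.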

[2] = target: T2, PDZ protein (GST-PDZ fusion) (Homo sapiens, UniProt Q5TCQ9)
T2 construct: made in house; host or cells: E. coli (DH5alpha, BL21 or JM109)
T2 sequence (Q5TCQ9 1-1481): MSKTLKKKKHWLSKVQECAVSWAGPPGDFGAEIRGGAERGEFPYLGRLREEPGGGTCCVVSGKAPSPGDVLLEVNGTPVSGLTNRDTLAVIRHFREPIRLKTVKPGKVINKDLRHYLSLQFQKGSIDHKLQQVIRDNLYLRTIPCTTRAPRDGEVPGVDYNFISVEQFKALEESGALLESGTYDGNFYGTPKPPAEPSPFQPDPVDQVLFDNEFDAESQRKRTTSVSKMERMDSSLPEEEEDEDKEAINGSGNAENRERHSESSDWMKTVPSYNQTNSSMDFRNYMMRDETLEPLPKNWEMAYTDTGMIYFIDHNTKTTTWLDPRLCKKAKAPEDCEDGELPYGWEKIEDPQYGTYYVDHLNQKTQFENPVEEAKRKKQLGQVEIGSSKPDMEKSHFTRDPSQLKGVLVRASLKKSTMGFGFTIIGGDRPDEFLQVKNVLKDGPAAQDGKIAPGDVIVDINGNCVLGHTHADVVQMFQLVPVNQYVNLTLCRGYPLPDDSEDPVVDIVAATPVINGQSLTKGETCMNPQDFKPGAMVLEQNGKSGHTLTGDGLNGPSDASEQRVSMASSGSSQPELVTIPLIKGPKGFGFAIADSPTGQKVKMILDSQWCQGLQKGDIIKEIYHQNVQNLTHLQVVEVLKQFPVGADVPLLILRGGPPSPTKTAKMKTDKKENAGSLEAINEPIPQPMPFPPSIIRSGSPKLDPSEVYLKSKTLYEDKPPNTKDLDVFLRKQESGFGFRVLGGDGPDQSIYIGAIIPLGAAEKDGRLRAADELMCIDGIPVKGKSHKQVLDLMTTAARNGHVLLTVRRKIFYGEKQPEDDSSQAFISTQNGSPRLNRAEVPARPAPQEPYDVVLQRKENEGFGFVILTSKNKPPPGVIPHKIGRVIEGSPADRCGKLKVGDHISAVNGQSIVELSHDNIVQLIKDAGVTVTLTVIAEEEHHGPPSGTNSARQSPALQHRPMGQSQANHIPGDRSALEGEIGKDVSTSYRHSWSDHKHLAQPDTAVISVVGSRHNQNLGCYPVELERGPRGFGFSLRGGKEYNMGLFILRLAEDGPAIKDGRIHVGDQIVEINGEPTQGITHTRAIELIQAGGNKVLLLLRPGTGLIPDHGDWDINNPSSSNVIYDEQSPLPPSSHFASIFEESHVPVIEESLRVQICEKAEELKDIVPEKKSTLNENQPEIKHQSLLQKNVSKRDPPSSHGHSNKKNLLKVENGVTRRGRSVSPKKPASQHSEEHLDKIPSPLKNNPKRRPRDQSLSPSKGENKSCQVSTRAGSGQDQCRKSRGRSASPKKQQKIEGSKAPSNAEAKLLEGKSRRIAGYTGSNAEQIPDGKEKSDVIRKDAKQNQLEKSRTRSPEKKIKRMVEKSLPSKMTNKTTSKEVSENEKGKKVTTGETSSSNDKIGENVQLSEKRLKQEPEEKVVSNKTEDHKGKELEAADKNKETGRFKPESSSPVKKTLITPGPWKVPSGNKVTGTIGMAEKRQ
Outline: as §1

[3] = system: PDZ protein (GST-PDZ fusion)
Outline: as §1

[4] = target: T3, PDZ protein (GST-PDZ fusion) (Homo sapiens, UniProt Q12923)
T3 construct: made in house; host or cells: E. coli (DH5alpha, BL21 or JM109)
T3 sequence (Q12923 whole entry, the tested form may be a part): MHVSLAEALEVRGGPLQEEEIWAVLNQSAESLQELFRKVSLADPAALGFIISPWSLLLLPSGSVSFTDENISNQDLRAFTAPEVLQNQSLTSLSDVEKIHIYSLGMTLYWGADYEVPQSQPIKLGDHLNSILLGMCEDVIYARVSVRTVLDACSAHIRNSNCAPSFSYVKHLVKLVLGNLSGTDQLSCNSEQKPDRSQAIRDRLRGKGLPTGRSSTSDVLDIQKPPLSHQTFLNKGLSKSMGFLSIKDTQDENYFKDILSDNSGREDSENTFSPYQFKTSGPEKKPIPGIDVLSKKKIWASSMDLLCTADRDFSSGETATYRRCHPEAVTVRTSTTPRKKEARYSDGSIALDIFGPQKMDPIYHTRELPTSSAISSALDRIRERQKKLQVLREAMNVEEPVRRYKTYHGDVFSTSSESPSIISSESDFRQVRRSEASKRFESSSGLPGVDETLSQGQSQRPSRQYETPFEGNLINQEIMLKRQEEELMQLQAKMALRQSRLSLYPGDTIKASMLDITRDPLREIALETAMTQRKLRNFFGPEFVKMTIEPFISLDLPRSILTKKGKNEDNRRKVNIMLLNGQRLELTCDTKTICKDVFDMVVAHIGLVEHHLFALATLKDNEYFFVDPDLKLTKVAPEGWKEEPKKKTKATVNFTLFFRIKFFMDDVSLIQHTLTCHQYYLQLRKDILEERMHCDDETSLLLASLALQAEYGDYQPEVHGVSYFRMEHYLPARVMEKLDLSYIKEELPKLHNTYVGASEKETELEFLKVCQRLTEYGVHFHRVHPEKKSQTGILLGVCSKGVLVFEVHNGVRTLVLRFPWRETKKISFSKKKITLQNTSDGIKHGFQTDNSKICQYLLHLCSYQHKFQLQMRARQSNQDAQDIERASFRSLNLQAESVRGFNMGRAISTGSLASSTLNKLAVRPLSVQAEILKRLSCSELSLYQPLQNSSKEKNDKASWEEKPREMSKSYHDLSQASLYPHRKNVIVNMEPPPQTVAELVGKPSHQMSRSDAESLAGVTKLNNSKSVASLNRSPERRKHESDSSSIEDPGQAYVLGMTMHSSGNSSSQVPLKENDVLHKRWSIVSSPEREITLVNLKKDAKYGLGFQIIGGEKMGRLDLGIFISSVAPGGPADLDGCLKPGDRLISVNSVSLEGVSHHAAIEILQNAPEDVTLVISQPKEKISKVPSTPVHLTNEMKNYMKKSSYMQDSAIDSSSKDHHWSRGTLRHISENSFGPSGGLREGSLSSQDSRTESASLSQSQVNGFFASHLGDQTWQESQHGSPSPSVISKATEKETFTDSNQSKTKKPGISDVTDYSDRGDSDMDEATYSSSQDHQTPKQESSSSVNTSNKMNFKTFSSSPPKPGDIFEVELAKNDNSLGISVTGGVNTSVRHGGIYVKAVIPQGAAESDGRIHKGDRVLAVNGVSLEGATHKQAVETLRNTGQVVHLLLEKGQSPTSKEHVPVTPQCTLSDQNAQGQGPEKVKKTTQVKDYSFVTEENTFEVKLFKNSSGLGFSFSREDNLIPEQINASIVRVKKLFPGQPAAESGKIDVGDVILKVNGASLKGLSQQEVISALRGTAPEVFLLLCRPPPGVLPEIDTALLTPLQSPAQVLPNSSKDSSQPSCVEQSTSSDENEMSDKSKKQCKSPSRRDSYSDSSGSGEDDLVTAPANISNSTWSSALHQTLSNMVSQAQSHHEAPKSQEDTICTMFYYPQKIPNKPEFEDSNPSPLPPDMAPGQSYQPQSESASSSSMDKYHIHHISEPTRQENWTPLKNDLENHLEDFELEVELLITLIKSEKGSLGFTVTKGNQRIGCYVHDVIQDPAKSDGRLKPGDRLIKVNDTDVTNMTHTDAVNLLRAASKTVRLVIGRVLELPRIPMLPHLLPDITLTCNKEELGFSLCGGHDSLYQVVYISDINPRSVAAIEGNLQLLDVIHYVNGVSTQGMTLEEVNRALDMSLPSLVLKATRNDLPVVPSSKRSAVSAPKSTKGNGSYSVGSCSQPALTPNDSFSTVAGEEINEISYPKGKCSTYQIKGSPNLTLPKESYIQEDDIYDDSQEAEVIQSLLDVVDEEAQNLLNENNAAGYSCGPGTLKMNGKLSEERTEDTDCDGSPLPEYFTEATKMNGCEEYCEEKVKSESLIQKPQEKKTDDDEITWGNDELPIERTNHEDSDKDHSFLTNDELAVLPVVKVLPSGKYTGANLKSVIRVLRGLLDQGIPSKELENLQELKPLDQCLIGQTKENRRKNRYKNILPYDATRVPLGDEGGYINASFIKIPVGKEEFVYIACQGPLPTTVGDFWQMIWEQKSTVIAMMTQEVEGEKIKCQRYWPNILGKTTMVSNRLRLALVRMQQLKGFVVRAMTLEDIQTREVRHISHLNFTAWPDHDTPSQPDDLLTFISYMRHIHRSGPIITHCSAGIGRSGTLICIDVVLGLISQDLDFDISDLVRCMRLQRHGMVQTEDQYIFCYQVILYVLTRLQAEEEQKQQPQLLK
Outline: as §1

[5] = PDZ KIAA807, PDZ Domain not given

| Classification ([1]; PDZ KIAA0807(S), PDZ Domain 1) | Classification [1, 5] | Classification ([2]; PDZ KIAA1634, PDZ Domain 5) | Classification ([4]; PDZ PTPL-1, PDZ Domain 2) | Classification ([1]; PDZ KIAA807) | Classification ([2]; PDZ KIAA1634, PDZ Domain 1) | Compound | Classification ([3]; PDZ BAI-1, PDZ Domain 6) | Classification ([3]; PDZ Novel PDZ, PDZ Domain 1) | Classification ([3]; PDZ SHANK, PDZ Domain 1) | Classification ([3]; PDZ BAI-1, PDZ Domain 2) | Classification ([3]; PDZ LIM Protein, PDZ Domain 1) | Classification ([2]; PDZ KIAA1634, PDZ Domain 2) | Classification ([3]; PDZ BAI-1, PDZ Domain 3) | Classification ([3]; PDZ FLJ 00011, PDZ Domain 1) | Classification ([3]; PDZ HEMBA 1003117, PDZ Domain 1) | Classification ([4]; PDZ PTPL-1, PDZ Domain 4) |
| --- | --- | --- | --- | --- | --- | --- | --- | --- | --- | --- | --- | --- | --- | --- | --- | --- |
| 5 (A450 nm of 4 more than 2× repeated) | 5 (A450 nm of 4 more than 2× repeated) | 1 (A450 nm 0-1) | 2 (A450 nm 1-2) |  |  | VHDAESSDEDGYDWGPATDL (Biotin-VHDAESSDEDGYDWGPATDL) [zona occludens 3 (ZO-3)] | 2 (A450 nm 1-2) | 1 (A450 nm 0-1) | 1 (A450 nm 0-1) |  |  |  |  |  |  |  |
| 5 (A450 nm of 4 more than 2× repeated) | 5 (A450 nm of 4 more than 2× repeated) | 5 (A450 nm of 4 more than 2× repeated) | 1 (A450 nm 0-1) |  |  | CC(C)C[C@H](NC(=O)[C@H](CC(=O)O)NC(=O)[C@H](CO)NC(=O)[C@H](CCC(=O)O)NC(=O)CNC(=O)[C@H](Cc1ccc(O)cc1)NC(=O)[C@H](CC(C)C)NC(=O)[C@H](C)NC(=O)[C@H](CO)NC(=O)[C@H](CO)NC(=O)[C@H](Cc1ccccc1)NC(=O)[C@H](C)NC(=O)[C@H](C)NC(=O)[C@H](Cc1ccc(O)cc1)NC(=O)[C@H](CC(=O)O)NC(=O)[C@H](CC(C)C)NC(=O)[C@H](C)NC(=O)CNC(=O)[C@@H]1CCCN1C(=O)[C@@H](NC(=O)CCCC[C@@H]1SC[C@@H]2NC(=O)N[C@@H]21)C(C)C)C(=O)O [a-actinin 2] (Biotin-VPGALDYAAFSSALYGESDL-OH; C-terminus assumed) | 5 (A450 nm of 4 more than 2× repeated) | 2 (A450 nm 1-2) | 1 (A450 nm 0-1) | 1 (A450 nm 0-1) | 4 (A450 nm 3-4) |  |  |  |  |  |
|  |  |  | 1 (A450 nm 0-1) | 3 (A450 nm 2-3) | 4 (A450 nm 3-4) | CC(C)C[C@H](NC(=O)CNC(=O)[C@@H](NC(=O)[C@H](CO)NC(=O)[C@H](CC(N)=O)NC(=O)[C@H](Cc1ccccc1)NC(=O)CNC(=O)[C@H](C)NC(=O)[C@H](C)NC(=O)[C@H](Cc1ccccc1)NC(=O)[C@@H](NC(=O)CCCC[C@@H]1SC[C@@H]2NC(=O)N[C@@H]21)[C@@H](C)O)[C@@H](C)O)C(=O)N1CCC[C@H]1C(=O)N[C@@H](Cc1c[nH]cn1)C(=O)N[C@@H](CO)C(=O)N[C@H](C(=O)N[C@H](C(=O)N[C@@H](CCCNC(=N)N)C(=O)N[C@H](C(=O)O)C(C)C)[C@@H](C)O)[C@@H](C)O [Neuroligin] (Biotin-TFAAGFNSTGLPHSTTRV-OH; C-terminus assumed) |  |  | 2 (A450 nm 1-2) |  |  | 2 (A450 nm 1-2) |  |  |  | 1 (A450 nm 0-1) |

| Compound | Classification ([1]; PDZ KIAA0807(S), PDZ Domain 1) | Classification [1, 5] | Classification ([2]; PDZ KIAA1634, PDZ Domain 5) | Classification ([4]; PDZ PTPL-1, PDZ Domain 2) | Classification ([1]; PDZ KIAA807) | Classification ([2]; PDZ KIAA1634, PDZ Domain 1) | Classification ([3]; PDZ BAI-1, PDZ Domain 6) | Classification ([3]; PDZ Novel PDZ, PDZ Domain 1) | Classification ([3]; PDZ SHANK, PDZ Domain 1) | Classification ([3]; PDZ BAI-1, PDZ Domain 2) | Classification ([3]; PDZ LIM Protein, PDZ Domain 1) | Classification ([2]; PDZ KIAA1634, PDZ Domain 2) | Classification ([3]; PDZ BAI-1, PDZ Domain 3) | Classification ([3]; PDZ FLJ 00011, PDZ Domain 1) | Classification ([3]; PDZ HEMBA 1003117, PDZ Domain 1) | Classification ([4]; PDZ PTPL-1, PDZ Domain 4) |
| --- | --- | --- | --- | --- | --- | --- | --- | --- | --- | --- | --- | --- | --- | --- | --- | --- |
| CC[C@H](C)[C@H](NC(=O)[C@H](CCC(N)=O)NC(=O)[C@@H](NC(=O)[C@H](Cc1c[nH]cn1)NC(=O)[C@H](CCC(N)=O)NC(=O)[C@H](CC(=O)O)NC(=O)[C@H](CCC(=O)O)NC(=O)[C@H](CC(=O)O)NC(=O)[C@H](Cc1ccccc1)NC(=O)[C@@H]1CCCN1C(=O)[C@H](CCC(=O)O)NC(=O)[C@H](CC(N)=O)NC(=O)[C@H](CCC(=O)O)NC(=O)[C@@H]1CCCN1C(=O)[C@H](CC(=O)O)NC(=O)[C@H](CO)NC(=O)[C@H](CC(=O)O)NC(=O)CCCC[C@@H]1SC[C@@H]2NC(=O)N[C@@H]21)[C@@H](C)O)C(=O)N[C@H](C(=O)N[C@@H](CCCCN)C(=O)N[C@H](C(=O)O)C(C)C)[C@@H](C)O [PTEN] | 5 (A450 nm of 4 more than 2× repeated) | 5 (A450 nm of 4 more than 2× repeated) |  | 4 (A450 nm 3-4) |  |  |  |  | 3 (A450 nm 2-3) |  |  | 5 (A450 nm of 4 more than 2× repeated) | 2 (A450 nm 1-2) | 3 (A450 nm 2-3) | 1 (A450 nm 0-1) | 1 (A450 nm 0-1) |
